Experimental data taken from patent US10228380B2, “Methods for targeting membrane steroid transporters” (priority 2018, dated 2019).

How the values were obtained:
EcI and EcR = biological target: T1, EcI and EcR (Drosophila melanogaster, UniProt P34021); experiment: luciferase reporter assay in HEK culture cells transfected with EcR or with EcI and EcR; assay type: cell-based, D. melanogaster; conditions: varying concentrations, 24 hours
T1 construct: expressed in transfected cells; host or cells: human HEK cells
T1 sequence (P34021 1-878): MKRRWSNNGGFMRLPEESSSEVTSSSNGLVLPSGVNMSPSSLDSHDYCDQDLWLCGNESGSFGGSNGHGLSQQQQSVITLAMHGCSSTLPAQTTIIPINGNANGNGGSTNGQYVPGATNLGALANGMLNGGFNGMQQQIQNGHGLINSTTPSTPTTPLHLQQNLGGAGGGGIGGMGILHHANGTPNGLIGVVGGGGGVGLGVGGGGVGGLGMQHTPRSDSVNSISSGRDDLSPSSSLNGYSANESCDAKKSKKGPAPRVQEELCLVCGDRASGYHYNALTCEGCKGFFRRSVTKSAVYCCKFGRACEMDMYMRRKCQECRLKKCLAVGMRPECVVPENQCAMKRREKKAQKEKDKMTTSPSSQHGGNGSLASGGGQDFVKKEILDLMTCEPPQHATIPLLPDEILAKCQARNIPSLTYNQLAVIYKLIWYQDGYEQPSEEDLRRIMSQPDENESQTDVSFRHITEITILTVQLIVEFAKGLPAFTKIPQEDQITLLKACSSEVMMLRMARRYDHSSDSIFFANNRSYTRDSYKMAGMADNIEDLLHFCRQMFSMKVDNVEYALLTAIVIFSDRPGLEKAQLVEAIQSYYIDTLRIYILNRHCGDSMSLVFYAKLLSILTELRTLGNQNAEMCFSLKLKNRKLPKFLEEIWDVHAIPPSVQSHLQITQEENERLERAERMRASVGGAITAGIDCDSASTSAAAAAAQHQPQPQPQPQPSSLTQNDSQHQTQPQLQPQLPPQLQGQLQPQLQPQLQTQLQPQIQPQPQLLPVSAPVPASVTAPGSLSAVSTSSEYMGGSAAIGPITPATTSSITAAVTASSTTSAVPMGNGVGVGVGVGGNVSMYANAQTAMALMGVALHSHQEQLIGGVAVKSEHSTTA
Experimental: FIG. 4 is a relative luciferase reporter activity in HEK culture cells treated for 24 h with 20E. Response of the cells transfected with EcR is the solid bottom line; cells transfected with EcR and EcI is the dashed top line. Each point represents mean±SEM; ** indicates p<0.01 from Student's t-test compared to control.
FIG. 5B depicts a schematic of a luciferase reporter assay in a cell derived from a mammalian cell line, for determining transport of 20E by the membrane steroid hormone transporter encoded by ecdysone importer (EcI).
As described above, in some embodiments, the transcriptional activity of a steroid hormone nuclear receptor is used to evaluate the transport of a steroid hormone across the cell membrane of an initial cell, or a comparative cell. In some variations, the luciferase reporter assay is used to measure the transcriptional activity of the steroid hormone nuclear receptor. […]
Human HEK cells were transfected with EcI and EcR, and their response to incubation with varying concentrations of 20E for 24 hours was evaluated using the luciferase reporter assay. Control HEK cells that were transfected only with EcR were also evaluated.

EcR = biological target: T2, EcR (Drosophila melanogaster, UniProt P34021); experiment: luciferase reporter assay in S2 culture cells with or without EcI RNAi; assay type: cell-based, D. melanogaster; conditions: for effect of EcI RNAi treatment on the cells' response as measured by the luciferase assay: S2 culture cells, varying concentrations, 24 hours, EcI RNAi vs control cells without RNAi
T2 construct: endogenous in cells; host or cells: Drosophila S2 culture cells
T2 sequence (P34021 1-878): T1 sequence (P34021 1-878)
T2 sequence (P20153 1-508 partner): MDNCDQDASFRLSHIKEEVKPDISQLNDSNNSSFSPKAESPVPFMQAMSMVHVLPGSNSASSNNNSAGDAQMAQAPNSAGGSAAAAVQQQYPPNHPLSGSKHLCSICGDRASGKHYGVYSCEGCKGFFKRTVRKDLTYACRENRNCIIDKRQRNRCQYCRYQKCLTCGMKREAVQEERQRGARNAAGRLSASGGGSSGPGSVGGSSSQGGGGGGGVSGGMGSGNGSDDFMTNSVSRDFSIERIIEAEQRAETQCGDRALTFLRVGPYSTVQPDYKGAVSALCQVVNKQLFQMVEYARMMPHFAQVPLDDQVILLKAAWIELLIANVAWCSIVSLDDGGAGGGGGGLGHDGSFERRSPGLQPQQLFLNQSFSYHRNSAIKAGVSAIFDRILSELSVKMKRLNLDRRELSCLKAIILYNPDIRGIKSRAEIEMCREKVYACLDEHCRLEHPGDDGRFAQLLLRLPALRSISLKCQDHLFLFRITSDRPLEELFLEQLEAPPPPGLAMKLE
Experimental: FIG. 3 is a graph of the fold change of D. melanogaster EcR response after incubation of S2 culture cells for 24 hours in varying concentrations of 20E (left graph) or chromafenozide (CF; middle graph), as measured by luciferase reporter assay. The right graph is a time-course analysis of EcR-mediated luciferase activity in S2 culture cells treated with 10^−7M of 20E. In each graph, the control data is the solid top line, and the dashed bottom line is data of cells treated with EcI RNAi. Each point represents mean±SD; * indicates p<0.05 from Student's t-test compared to control; ** indicates p<0.01 from Student's t-test compared to control.
FIG. 5A depicts a schematic of a luciferase reporter assay in a cell derived from an arthropod cell line, for determining transport of 20E by the membrane steroid hormone transporter encoded by ecdysone importer (EcI).
As described above, in some embodiments, the transcriptional activity of a steroid hormone nuclear receptor is used to evaluate the transport of a steroid hormone across the cell membrane of an initial cell, or a comparative cell. In some variations, the luciferase reporter assay is used to measure the transcriptional activity of the steroid hormone nuclear receptor. For example, with reference to FIG. 5A and FIG. 5B, depicted are schemes showing the use of a luciferase reporter assay in an S2 cell (FIG. 5A) or in a HEK cell (FIG. 5B) to evaluate the transcriptional activity of the nuclear receptor encoded by the gene ecdysone receptor (EcR).
S2 culture cells treated with EcI RNAi were incubated with varying concentrations of 20E or with chromafenozide (CF) for 24 hours, and their response was monitored using a luciferase reporter assay. The relative response of the treated cells was compared to control cells, which were incubated with 20E or CF but not treated with RNAi. […] CF is a non-steroidal EcR agonist, and is expected to enter the cells through an unknown transporter distinct from EcI.

| Compound | response as measured by luciferase assay (EcI and EcR; control human HEK cells transfected only with EcR) | response as measured by luciferase assay (EcI and EcR; human HEK cells transfected with both EcI and EcR) | effect of EcI RNAi treatment on the cells' response over time (time-course of luciferase activity) (EcR; S2 cells treated with 10^−7 M, with or without RNAi) | effect of EcI RNAi treatment on the cells' response as measured by the luciferase assay (EcR) |
| --- | --- | --- | --- | --- |
| CC(C)(O)CC[C@@H](O)[C@](C)(O)[C@H]1CC[C@@]2(O)C3=CC(=O)[C@@H]4C[C@@H](O)[C@@H](O)C[C@]4(C)[C@H]3CC[C@]12C [20E, 20-hydroxyecdysone] | not responsive | responsive | significantly decreased | significantly decreased |
| Cc1cc(C)cc(C(=O)N(NC(=O)c2ccc3c(c2C)CCCO3)C(C)(C)C)c1 [CF, chromafenozide] | – | – | – | less effect |
